Source: US20240270762A1, “PENICILLIN-BINDING PROTEIN INHIBITORS” (priority 2021, published 2024)
Values after ≈ are worked out from the molar mass of the structure shown.

How the values were obtained:
K. pneumoniae 848844 = experiment: microbe, parasite or virus in culture; assay type: cell-based; conditions: Klebsiella pneumoniae, 848844, read-out: MIC K. pneumoniae 848844
N. gonorrhoeae WHO X = experiment: Liquid broth MIC in Fastidious broth; conditions: Neisseria gonorrhoeae, read-out: Minimum Inhibitory Concentration (MIC), N. gonorrhoeae WHO X
Procedure: Liquid broth-based assays were used for antibacterial testing of PBP inhibitors in Neisseria gonorrhoeae. Briefly, cryo-preserved bacterial cultures of clinical strains were streaked for isolation on Chocolate Agar (72 g/L (2×) GC Agar Base (BD #228950) and 2% (2×) Hemoglobin was autoclaved at 121° C. for 20 minutes to sterilize. Once cooled to ˜50° C. the 2×GC Agar Base and 2× Hemoglobin solutions are combined and 1% IsoVitaleX Enrichment (BD #211876) was added to the solution). Strains were incubated at 36° C. and 5% CO2 to allow growth of colonies, 24 hours before inoculum preparation. 2-fold serial dilutions of test compounds were conducted in a 96 well plate with a final volume of 75 μL per well at 2-fold the final desired concentration in Fastidious broth (Remel #R07664). For preparation of assay inoculum, a direct suspension was prepared by aseptically swabbing 10-15 colonies from agar plates into culture tubes containing 2 mL of fresh sterile saline. After the dilution plates were set up, direct suspensions were then diluted in a cuvette containing sterile saline and the optical density was measured at 600 nm. Inocula were diluted such that 75 μL of this culture in Fastidious broth results in a starting bacterial concentration of 5×10^5 CFU/mL when added to the dilution plates. The plates were incubated for ˜24 hours at 36° C. and 5% CO2.

E. coli 901C = experiment: microbe, parasite or virus in culture; assay type: cell-based; conditions: Escherichia coli, read-out: MIC E. coli 901C
E. coli AG100 = experiment: microbe, parasite or virus in culture; assay type: cell-based; conditions: Escherichia coli, AG100, read-out: MIC E. coli AG100
P. aeruginosa ATCC 35151 = experiment: microbe, parasite or virus in culture; assay type: cell-based; conditions: Pseudomonas aeruginosa, ATCC35151, read-out: MIC P. aeruginosa ATCC 35151
E. coli D22 = experiment: microbe, parasite or virus in culture; assay type: cell-based; conditions: Escherichia coli, D22, read-out: MIC E. coli D22
N. gonorrhoeae WHO G = experiment: Liquid broth MIC in Fastidious broth; conditions: Neisseria gonorrhoeae, read-out: Minimum Inhibitory Concentration (MIC), N. gonorrhoeae WHO G
N. gonorrhoeae WHO L = experiment: Liquid broth MIC in Fastidious broth; conditions: Neisseria gonorrhoeae, read-out: Minimum Inhibitory Concentration (MIC), N. gonorrhoeae WHO L
N. gonorrhoeae MS11 = experiment: Liquid broth MIC in Fastidious broth; conditions: Neisseria gonorrhoeae, MS11, read-out: Minimum Inhibitory Concentration (MIC), N. gonorrhoeae MS11
[1] = test system: N. gonorrhoeae ATCC 49226; experiment: Liquid broth MIC in Fastidious broth; conditions: Neisseria gonorrhoeae, ATCC49226, read-out: Minimum Inhibitory Concentration (MIC), N. gonorrhoeae ATCC 49226
K. pneumoniae UMM = experiment: microbe, parasite or virus in culture; assay type: cell-based; conditions: Klebsiella pneumoniae, read-out: MIC K. pneumoniae UMM
E. coli AG100A = experiment: Broth microdilution MIC in CAMHB; assay type: cell-based; conditions: Escherichia coli, read-out: MIC E. coli AG100A
[2] = target: T1, PBP3 from Escherichia coli (K-12) (Escherichia coli, UniProt P0AD68); experiment: Bocillin-FL fluorescence polarization competition binding, E. coli PBP3
T1 construct: made in house
T1 sequence (P0AD68 1-577): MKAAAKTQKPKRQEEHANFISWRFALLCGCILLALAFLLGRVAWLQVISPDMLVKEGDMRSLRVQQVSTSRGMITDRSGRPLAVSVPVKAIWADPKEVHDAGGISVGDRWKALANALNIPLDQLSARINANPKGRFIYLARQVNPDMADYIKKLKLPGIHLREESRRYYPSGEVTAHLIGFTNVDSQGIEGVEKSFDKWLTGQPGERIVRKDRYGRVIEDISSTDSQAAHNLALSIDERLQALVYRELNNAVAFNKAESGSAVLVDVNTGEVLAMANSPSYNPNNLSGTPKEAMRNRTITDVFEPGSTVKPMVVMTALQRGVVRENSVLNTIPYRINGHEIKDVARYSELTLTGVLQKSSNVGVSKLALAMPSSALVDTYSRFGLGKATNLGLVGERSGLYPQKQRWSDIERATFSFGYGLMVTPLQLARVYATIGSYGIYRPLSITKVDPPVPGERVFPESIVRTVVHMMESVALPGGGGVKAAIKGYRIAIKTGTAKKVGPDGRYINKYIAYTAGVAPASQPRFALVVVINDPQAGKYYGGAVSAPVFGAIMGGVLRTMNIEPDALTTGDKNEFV
Outline: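 Purified PBPs pre-incubated with inhibitor (E. coli PBP3 1.5 μM, 30 min; P. aeruginosa PBP3 0.75 μM, A. baumannii PBP1a 1 μM and PBP3 0.2 μM, 15 min), then Bocillin-FL 0.1 μM (0.05 μM for PBP1a) added; FP read up to 60 min. EC50 = concentration halving bound Bocillin-FL.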

N. gonorrhoeae WHO M = experiment: Liquid broth MIC in Fastidious broth; conditions: Neisseria gonorrhoeae, read-out: Minimum Inhibitory Concentration (MIC), N. gonorrhoeae WHO M

SMILES | MIC (K. pneumoniae 848844) | MIC (N. gonorrhoeae WHO X) | MIC (E. coli 901C) | MIC (E. coli AG100) | MIC (P. aeruginosa ATCC 35151) | MIC (E. coli D22) | MIC (N. gonorrhoeae WHO G) | MIC (N. gonorrhoeae WHO L) | MIC (N. gonorrhoeae MS11) | MIC [1] | MIC (K. pneumoniae UMM) | MIC (E. coli AG100A) | EC50 [2] | MIC (N. gonorrhoeae WHO M)
CS(=O)(=O)N1CCN(C(=O)N[C@@H](C(=O)N[C@H]2Cc3cccc(C(=O)O)c3OB2O)c2ccc(P(=O)(O)O)c(F)c2F)C1=O (single isomer, unassigned) [Example 13] | > 128 mg/L | < 1 mg/L | < 1 mg/L | 32 to 64 mg/L (≈ 49.5 to 99 µM) | 2 to 4 mg/L (≈ 3.09 to 6.19 µM) | 8 to 16 mg/L (≈ 12.4 to 24.8 µM) | < 1 mg/L | < 1 mg/L | < 1 mg/L | < 1 mg/L | > 128 mg/L | 8 to 16 mg/L (≈ 12.4 to 24.8 µM) | < 10 µM | < 1 mg/L
O=C(O)c1cccc2c1OB(O)[C@@H](NC(=O)C(NC(=O)C1CCCCC1)c1ccc(P(=O)(O)O)cc1)C2 (stereo partly drawn) [Example 31, (3R)-3-(2-(cyclohexanecarboxamido)-2-(4-phosphonophenyl)acetamido)-2-hydroxy-3,4-dihydro-2H-benzo[e][1,2]oxaborinine-8-carboxylic acid] | > 128 mg/L | 16 to 32 mg/L (≈ 30.2 to 60.3 µM) | 32 to 64 mg/L (≈ 60.3 to 121 µM) | > 128 mg/L | 2 to 4 mg/L (≈ 3.77 to 7.54 µM) | 32 to 64 mg/L (≈ 60.3 to 121 µM) | 16 to 32 mg/L (≈ 30.2 to 60.3 µM) | 16 to 32 mg/L (≈ 30.2 to 60.3 µM) | 16 to 32 mg/L (≈ 30.2 to 60.3 µM) | 16 to 32 mg/L (≈ 30.2 to 60.3 µM) | > 128 mg/L | > 128 mg/L | 50 to 250 µM | 4 to 8 mg/L (≈ 7.54 to 15.1 µM)
CS(=O)(=O)N1CCC[C@@H]1C(=O)N[C@H](C(=O)N[C@H]1Cc2cccc(C(=O)O)c2OB1O)c1ccc(P(=O)(O)O)cc1 [Example 34, (R)-2-hydroxy-3-((S)-2-((R)-1-(methylsulfonyl)pyrrolidine-2-carboxamido)-2-(4-phosphonophenyl)acetamido)-3,4-dihydro-2H-benzo[e][1,2]oxaborinine-8-carboxylic acid] | > 128 mg/L | 16 to 32 mg/L (≈ 26.9 to 53.8 µM) | 8 to 16 mg/L (≈ 13.4 to 26.9 µM) | > 128 mg/L | 8 to 16 mg/L (≈ 13.4 to 26.9 µM) | 32 to 64 mg/L (≈ 53.8 to 108 µM) | 4 to 8 mg/L (≈ 6.72 to 13.4 µM) | 16 to 32 mg/L (≈ 26.9 to 53.8 µM) | 16 to 32 mg/L (≈ 26.9 to 53.8 µM) | 16 to 32 mg/L (≈ 26.9 to 53.8 µM) | > 128 mg/L | > 128 mg/L | 50 to 250 µM | 4 to 8 mg/L (≈ 6.72 to 13.4 µM)
O=C(O)c1cccc2c1OB(O)[C@@H](NC(=O)[C@H](NC(=O)c1c[nH]ccc1=O)c1ccc(P(=O)(O)O)cc1)C2 [Example 175, (R)-2-hydroxy-3-((R)-2-(4-oxo-1,4-dihydropyridine-3-carboxamido)-2-(4-phosphonophenyl)acetamido)-3,4-dihydro-2H-benzo[e][1,2]oxaborinine-8-carboxylic acid] | 32 to 64 mg/L (≈ 59.1 to 118 µM) | 16 to 32 mg/L (≈ 29.6 to 59.1 µM) | 2 to 4 mg/L (≈ 3.7 to 7.39 µM) | 32 to 64 mg/L (≈ 59.1 to 118 µM) | < 1 mg/L | 8 to 16 mg/L (≈ 14.8 to 29.6 µM) | 1 to 2 mg/L (≈ 1.85 to 3.7 µM) | 16 to 32 mg/L (≈ 29.6 to 59.1 µM) | 1 to 2 mg/L (≈ 1.85 to 3.7 µM) | 1 to 2 mg/L (≈ 1.85 to 3.7 µM) | 32 to 64 mg/L (≈ 59.1 to 118 µM) | 32 to 64 mg/L (≈ 59.1 to 118 µM) | < 10 µM | < 1 mg/L
CS(=O)(=O)NC(C(=O)N[C@H]1Cc2cccc(C(=O)O)c2OB1O)c1ccc(P(=O)(O)O)cc1 (stereo partly drawn) [Example 59, (3R)-2-hydroxy-3-(2-(methylsulfonamido)-2-(4-phosphonophenyl)acetamido)-3,4-dihydro-2H-benzo[e][1,2]oxaborinine-8-carboxylic acid] | > 128 mg/L | 16 to 32 mg/L (≈ 32.1 to 64.2 µM) | 32 to 64 mg/L (≈ 64.2 to 128 µM) | > 128 mg/L | 32 to 64 mg/L (≈ 64.2 to 128 µM) | > 128 mg/L | 16 to 32 mg/L (≈ 32.1 to 64.2 µM) | 16 to 32 mg/L (≈ 32.1 to 64.2 µM) | 16 to 32 mg/L (≈ 32.1 to 64.2 µM) | 16 to 32 mg/L (≈ 32.1 to 64.2 µM) | > 128 mg/L | > 128 mg/L | > 250 µM | 4 to 8 mg/L (≈ 8.03 to 16.1 µM)
Cn1cccc(C(=O)N[C@H](C(=O)N[C@H]2Cc3cccc(C(=O)O)c3OB2O)c2ccc(P(=O)(O)O)cc2)c1=O (single isomer, unassigned) [Example 181] | > 128 mg/L | 16 to 32 mg/L (≈ 28.8 to 57.6 µM) | 32 to 64 mg/L (≈ 57.6 to 115 µM) | > 128 mg/L | 8 to 16 mg/L (≈ 14.4 to 28.8 µM) | > 128 mg/L | 4 to 8 mg/L (≈ 7.2 to 14.4 µM) | 16 to 32 mg/L (≈ 28.8 to 57.6 µM) | 4 to 8 mg/L (≈ 7.2 to 14.4 µM) | 16 to 32 mg/L (≈ 28.8 to 57.6 µM) | > 128 mg/L | > 128 mg/L | 50 to 250 µM | 16 to 32 mg/L (≈ 28.8 to 57.6 µM)
